Laboratory results published in patent US8143243B2, “Compounds for the treatment of hepatitis C” (Bristol-Myers Squibb Company, priority 2007, dated 2012).

Tested on: HCV replicon cells
Assay: HCV replicon FRET / luciferase assay
Type: cell-based
Conditions: Hepatitis C virus
Description: FRET Assay Preparation. To perform the HCV FRET screening assay, 96-well cell culture plates were used. The FRET peptide (Anaspec, Inc.) (Taliani et al., Anal. Biochem. 1996, 240, 60-67) contains a fluorescence donor, EDANS, near one end of the peptide and an acceptor, DABCYL, near the other end. The fluorescence of the peptide is quenched by […] resonance energy transfer (RET) between the donor and the acceptor, but as the NS3 protease cleaves the peptide the products are released from RET quenching and the fluorescence of the donor becomes apparent. The assay reagent was made as follows: 5× cell Luciferase cell culture lysis reagent from Promega (#E153A) diluted to 1× with dH2O, NaCl added to 150 mM final, the FRET peptide diluted to 20 μM final from a 2 mM stock.
To prepare plates, HCV replicon cells, with or without a Renilla luciferase reporter gene, were trypsinized and placed into each well of a 96-well plate with titrated test compounds added in columns 3 through 12; columns 1 and 2 contained a control compound (HCV protease inhibitor), and the bottom row contained cells without compound. The plates were then placed in a CO2 incubator at 37° C.
Assays. Subsequent to addition of the test compounds described above (FRET Assay Preparation), at various times the plate was removed and Alamar blue solution (Trek Diagnostics, #00-100) was added per well as a measure of cellular toxicity. After reading in a Cytoflour 4000 instrument (PE Biosystems), plates were rinsed with PBS and then used for FRET assay by the addition of 30 ul of the FRET peptide assay reagent described above (FRET Assay Preparation) per well. The plate was then placed into the Cytoflour 4000 instrument which had been set to 340 excite/490 emission, automatic mode for 20 cycles and the plate read in a kinetic mode. Typically, the signal to noise using an endpoint analysis after the reads was at least three-fold. Alternatively, after Alamar blue reading, plates were rinsed with PBS, 50 ul of DMEM (high glucose) without phenol red was added and plates were then used for luciferase assay using the Promega Dual-Glo Luciferase Assay System.
Compound analysis was determined by quantification of the relative HCV replicon inhibition and the relative cytotoxicity values. To calculate cytoxicity values, the average Alamar Blue fluorescence signals from the control wells were set as 100% non-toxic. The individual signals in each of the compound test wells were then divided by the average control signal and multiplied by 100% to determine […]. To calculate the HCV replicon inhibition values, an average background value was obtained from the two wells containing the highest amount of HCV protease inhibitor at the end of the assay period. These numbers were similar to those obtained from naïve Huh-7 cells.
The background numbers were then subtracted from the average signal obtained from the control wells and this number was used as 100% activity. The individual signals in each of the compound test wells were then divided by the averaged control values after background subtraction and multiplied by 100% to determine percent activity. EC50 values for a protease inhibitor titration were calculated as the concentration which caused a 50% reduction in FRET or luciferase activity. The two numbers generated for the compound plate, percent cytoxicity and percent activity were used to determine compounds of interest for further analysis.

Structure (SMILES)	EC50
COc1ccc2c(c1)C=C(c1c(C(=O)N3C4CCC3CC4)cnn1C)Cn1c-2c(C2CCCCC2)c2ccc(C(=O)NS(=O)(=O)C(C)C)cc21	1 to 500 nM
CCn1ncc(C(=O)N2C3CCC2CN(C)C3)c1C1=Cc2cc(OC)ccc2-c2c(C3CCCCC3)c3ccc(C(=O)NS(=O)(=O)C(C)C)cc3n2C1	1 to 500 nM
COc1ccc2c(c1)C=C(c1c(C(=O)N3C4COCC3COC4)cnn1CC(F)(F)F)Cn1c-2c(C2CCCCC2)c2ccc(C(=O)NS(=O)(=O)C(C)C)cc21	1 to 500 nM
COc1ccc2c(c1)C=C(c1c(C(=O)N3C4CCCC3COC4)cnn1C(C)C)Cn1c-2c(C2CCCCC2)c2ccc(C(=O)NS(=O)(=O)C(C)C)cc21	1 to 500 nM
COc1ccc2c(c1)C=C(c1c(C(=O)N3C4CCC3CN(C)C4)c(C)nn1C(C)C)Cn1c-2c(C2CCCCC2)c2ccc(C(=O)NS(=O)(=O)C(C)C)cc21	1 to 500 nM
CCn1nc(C)c(C(=O)N2C3CCC2CN(C)C3)c1C1=Cc2cc(OC)ccc2-c2c(C3CCCCC3)c3ccc(C(=O)NS(=O)(=O)C(C)C)cc3n2C1	1 to 500 nM
CCn1ncc(C(=O)N2CC3CCC(C2)N3C)c1C1=Cc2cc(OC)ccc2-c2c(C3CCCCC3)c3ccc(C(=O)NS(=O)(=O)C(C)C)cc3n2C1	1 to 500 nM
CCn1nc(C)c(C(=O)N2C3CCCC2COC3)c1C1=Cc2cc(OC)ccc2-c2c(C3CCCCC3)c3ccc(C(=O)NS(=O)(=O)C(C)C)cc3n2C1	1 to 500 nM
COc1ccc2c(c1)C=C(c1c(C(=O)N3C4CCC3CN(C)C4)ncn1C(C)C)Cn1c-2c(C2CCCCC2)c2ccc(C(=O)NS(=O)(=O)C(C)C)cc21	1 to 500 nM
COc1ccc2c(c1)C=C(c1c(C(=O)N3C4CCC3CN(C)C4)nnn1C(C)C)Cn1c-2c(C2CCCCC2)c2ccc(C(=O)NS(=O)(=O)N(C)C)cc21	1 to 500 nM
